{"source": "patent US20220273926A1", "about": "“DRUG DELIVERY USING MICRONEEDLE ARRAYS” (BOARD OF REGENTS OF THE UNIVERSITY OF NEBRASKA, priority 2019, published 2022)", "key": {"[1]": {"settings": "topical delivery; 100 μL of 5 mg/mL; 3% agarose; 30 min", "from_the_text": "Agarose and other agar-based hydrogels have been widely used as skin models in previous studies^37,38. […] The intensity is also plotted quantitatively against the depth of penetration (FIG. 15C)."}, "[2]": {"test": "Release profile from hydrogel-filled MNAs", "format": "physicochemical", "settings": "three concentrations, 3 mm and 2 mm MNAs, 72 hrs in PBS", "procedure": "MNAs were filled with this BSA-containing alginate solution and Calcium Chloride (CaCl2) used for crosslinking following this protocol: first placing MNAs in 3% (w/v) agarose gel containing 2% (v/v) CaCl2 for few minutes and then pipetting additional 2% (v/v) CaCl2 over the tops to ensure complete crosslinking.\nTo perform a 3-day long release study, each needle array was placed in 0.5 mL of PBS. Samples were taken from solution at each time point over the course of 72 hrs and were stored in micro vials at room temperature over the duration of the release. For the final evaluation of protein release, 150 μL of each sample added to 96 well plates mixed with 150 μL of working reagent. Working reagent solution was made from a mixture of reagent A, B and C of BCA protein kit with the ratio of 24:24:1. Once reagents and samples were mixed, plates were incubated at 37° C. for an hour, and a plate reader (BioTech) used to read the absorption. Absorption values from the plate reader converted to concentrations using a calibration curve.\nAfter filling the MNAs with the solution, PEGDA was photocrosslinked for approximately 30 seconds using a handheld UV light. A similar experimental protocol followed to study protein release from PEGDA over the course of 72 hours."}, "[3]": {"tested_on": "full-thickness skin wounds of diabetic (Lepr^db) mice", "settings": "for average healing rate: 100 μL of 500 ng/mL on days 5 and 7; for histological features at the central region of the wounds (H&E): day 19", "from_the_text": "On the day of surgery, mice received a full thickness (1×1 cm^2) skin wound on their dorsum. Mice with the full thickness (1×1 cm^2) wound on their dorsum were kept untreated for 5 days to allow eschar formation. Animals received treatment via three different delivery methods on days 5 and 7 post-surgery. […] Similar to in vitro experiments, to minimize the potential injury upon the delivery of therapeutics intradermally using LJI, a layer of agarose was placed between the wound and the nozzle.\nSmall Animal studies: Murine animal procedures were approved by the Institutional Animal Care and Use Committee (IACUC) of the University of Nebraska, Lincoln. Six to seven weeks old B6.BKS(D)-Lepr^db/J mice were obtained from the Jackson Laboratory (Bar Harbor, Me.). Since this mouse strain had congenic obesity, the animals were put on a special food diet. […] On day 0 of the study, 5% isoflurane was provided via a nose cone for anesthetization of animals and 3% isoflurane was used for maintaining sedation. The hair on the dorsal area was shaved, the skin was sterilized, and a full-thickness skin cut of 1 cm×1 cm was created. Buprenorphine SR was administered for pain relief at the time of surgery.\nAnimals received treatments on day 5 and day 7 post-surgery. […] To minimize the potential damage of solutions delivered by LJI to mice, an approximately 9 mm thick layer of 5% (w/v) of agarose was placed between the LJI nozzle and animal skin (FIG. 21).\nAnimals were inspected daily for wound closure, weight change and vitals. All animals were sacrificed on day 19 post-surgery using CO2 asphyxiation using a 30% oxygen displacement rate. The wound tissue was harvested and fixed in 10% neutral buffered formalin for further histological study.\nHistological analysis: Sections of harvested skin were fixed by immersion in 10% neutral buffered formalin and routinely processed on a Tissue-Tek VIP 5 Tissue Processor. After processing, the tissues were embedded in paraffin blocks and were sectioned at 4 μm thick on a HM 355S Thermo Scientific microtome. Slides were deparaffinized and stained with H&E using a Leica ST5020 H&E stainer. Histological evaluation was conducted by a board certified veterinary anatomic blinded to the experiment.\nImmunohistochemistry staining: In the murine study, formalin-fixed and paraffin-embedded biopsies were cut into 7 μm thick samples. Slides were deparaffinized, hydrated and washed using xylene and ethanol solutions. Subsequently, a heat mediated antigen retrieval step was performed at 95° C. for […]. The sections were blocked using 2.5% normal horse serum for 30 min at room temperature, and incubated with primary antibody (anti-CD31) at 4° C. overnight. Tissue sections were then treated with 3% hydrogen peroxide for 10 minutes at room temperature to block the peroxidase activity. Secondary antibody was then applied for 30 minutes at room temperature. To form a colored precipitate, DAB solution was incubated on the slides for 3-5 minutes. Finally, counterstaining was performed using hematoxylin for 30 seconds, and sections were dehydrated, washed, covered with mounting solution, and cover slipped."}, "[4]": {"tested_on": "full-thickness wounds on the dorsum of Yorkshire pigs", "settings": "day 14", "protocol": "To serve as controls, a group of wounds was treated with PBS for evaluating the potential effects of MNA administration, and a group was left untreated.\nLarge animal studies: The procedures for porcine animal studies were performed at Toxikon Corporation (Bedford, Mass.). The study protocol was approved by Toxikon's Institutional Animal Care and Use Committee, and conformed to federal animal laws and regulations. Three Yorkshire pigs (Animal Biotech Industries, Danboro, Pa.), 70-80 kg each, were anesthetized by intramuscular administration of 3.3 mg/kg ketamine, 2.2 mg/kg xylazine, 1.1 mg/kg acepromazine, and 0.02 mg/kg atropine. 0-5% isoflurane and oxygen were provided to maintain general anesthesia. Pain management was achieved by administration of a transdermal patch releasing 2-3 mkg/kg/h fentanyl per hour for 72 hours (Duragesic, Janssen). In addition, buprenorphine 0.01-0.03 mg/kg was delivered intramuscularly at the end of the surgery.\nCircular full-thickness wounds (d=2.5 cm) were created on the dorsum of each pig. After marking the wounds in parallel paraspinal stripes, the outlines were tattooed with red ink using an electric tattoo marker (Spaulding & Rogers Mfg., Inc., Voorheesville, N.Y.). Full-thickness wounds down to fascia were excised. […]\nFor macroscopic wound evaluation, wound contraction was measured of the tattooed margins from macroscopic wound photos using Image J software (NIH, Bethesda, Md.). Open wound area (S1) and the area inside tattooed margin (S2) were measured and compared with original wound size on day 0 (S0=5 cm^2). The wound contraction and non-contracted wound closure contributions were calculated as 100×(S2−S0)/S0 and 100×(S2−S1)/S0, respectively.\nIn the swine experiment, the wounds were excised using a scalpel and fixed in formalin for immunohistochemical analysis. […] The wound sections were immunostained for von Willebrand Factor (vWF), smooth muscle actin (SMA), and CD3 based on manufacturers' protocols and the amount of positive staining was quantified in a blinded-manner using a light microscope."}, "[5]": {"tested_on": "full thickness skin wounds of diabetic (Lepr^db) mice", "procedure": "To further investigate the potential benefits of MNAs in treatment of diabetic and chronic wounds, an animal study was conducted on diabetic mice with cutaneous wounds. Homozygous mice for the diabetes spontaneous mutation (Lepr^db) become identifiably obese around 3 to 4 weeks of age. On day 10 to 14 elevations of plasma insulin begin and at four to eight weeks the blood sugar level elevates. With a delayed wound healing and an increased metabolic efficiency this mouse strain serves as a suitable model for chronic wound research.\nOn day one, all the mice received a square shaped 1 cm×1 cm full thickness skin cut on their dorsum. The animals were kept untreated for 5 days to allow the formation of wound crust. On days 5 and 7 post-surgery, animals received the planned treatment. T weight of each animal was recorded periodically, and wound areas were assessed every two days and photographed to monitor investigate wound closure (FIG. 5A).\nAnimal Studies: All animal procedures were reviewed and approved by the Institutional Animal Care and Use Committee (IACUC) of the University of Nebraska, Lincoln. Five weeks old B6.BKS(D)-Lepr^db/J mice were purchased from the Jackson Laboratory (Bar Harbor, Me.) weighted between 34-43 grams and accommodated in University of Nebraska, Life Science, animal facility for one week before the wound injury procedure. The animals were on special food diet during the entire research period.\nIn the day 1, all animals were anesthetized by 5% of isoflurane using anesthesia system, (VetFlo, Kent Scientific, Torrington, Conn.) via a nose cone. The hair on the dorsal region of animals was shaved using an electric razor. The skin was sterilized, and a full thickness skin cut of 1 cm×1 cm was created. The wounds were covered with a regular bandage. All mice placed back in separate cages individually after recovering from anesthesia. Animals were monitored for wound condition, vitals and wellbeing, and weight gain/loss trends daily.\nTo simulate the real wound conditions covered by crust and necrotic tissues, treatment start points were on day 5 by which a complete crust was formed on the wounds. […] In the topical delivery group, 100 μl of the solution was poured topically using a pipette on the top of the wound and the animals were let to sit for about 10 minutes, the wound was then covered by a fresh dressing. In MNAs delivery group, 100 μl of the solution was delivered using the MNAs and after 10 min, the microneedles were removed and the wound was covered by a fresh dressing. Animals of negative control received no treatment. […] Wounds were inspected every 2 days and the bandage was changed and a picture of the wound was taken using a digital camera.\nOn day 19, all animals were sacrificed using 20% CO2 volume displacement (flow rate cage volume/per minute) poisoning overdose and wound tissue was harvested and fixed in using 4% paraformaldehyde (PFA).\nHistology: Frozen sections of haired skin were stored in a −80° C. ultralow freezer prior to sectioning on a cryotome. The sections of skin were cut 10 μm thick using a Thermo Scientific CryoStar NX50, routinely stained with hematoxylin and eosin on a Leica ST5020 H&E stainer, and coverslipped with a Leica CV5030 coverslipper. A veterinary anatomic pathologist who is board certified by the American College of Veterinary Pathologists performed all histological evaluations. Immunohistochemistry was done manually using Anti-CD31, rabbit host species (ab28364, Abcam, MA, USA)."}, "HUVECs": {"tested_on": "HUVECs", "settings": "VEGF equivalent to 50 ng/mL through MNAs", "procedure": "To develop a method for mimicking the crust and necrotic tissue covering chronic wounds, 12-well cell culture inserts were used and covered with […] of 3% (w/v) agarose solution […]. […] Similar techniques were applied for scratch assay with seeding HUVECs in the bottom of chamber covered by 2 mL basal media.\nTo assess the effectiveness of the released factors, a standard scratch assay was conducted. Wells of a 12-well plate were coated by Geltrex. After aspirating the Geltrex from the wells, 30,000 cells per well were seeded and cultured until a confluent monolayer formed in each well. The cells were cultured in basal media supplemented with 2% FBS for 6 hours. prior to the experiments. On the day of experiments, an approximately 200 μm wide scratch was formed using a 200 μL micropipette tip. […] Fixed points of each well (two points per well) were imaged using a Nikon Ti inverted microscope after 0, 2, and 4 hours after each treatment application. A total of 4 samples per condition was tested."}}, "note": "Read-outs that look alike come from different tables or passages of the source.", "data": [{"compound": "CCN(CC)c1ccc2c(-c3ccccc3C(=O)O)c3ccc(=[N+](CC)CC)cc-3oc2c1.[Cl-]", "note": "[rhodamine B]", "values": [{"measurement": "depth after which dye intensity promptly decreased", "setting": "[1]", "result": "~1", "unit": "mm"}, {"measurement": "release profile from alginate-filled MNAs", "setting": "[2]", "result": "curved burst release over the first 6 hours, with slower, more linear release over the next 3 days"}]}, {"compound": "vascular endothelial growth factor [VEGF]", "values": [{"measurement": "average healing rate", "setting": "[3]; LJI delivery, end of the study", "result": 81, "unit": "%"}, {"measurement": "average healing rate", "setting": "[3]; MNA delivery, end of the study", "result": 96, "unit": "%"}, {"measurement": "average wound size", "setting": "[3]; MNA delivery, end of the study", "result": 0.04, "unit": "cm^2"}, {"measurement": "histological features at the central region of the wounds (H&E)", "setting": "[3]; TOP-administrated", "result": "contained a bed of granulation tissue with a partially healed center"}, {"measurement": "histological features at the central region of the wounds (H&E)", "setting": "[3]; intradermal delivery (MNA, LJI)", "result": "more advanced wound healing characteristics"}, {"measurement": "vascularization, IHC staining against CD31", "setting": "[3]; intradermal delivery vs topical and controls, 19 days post-injury", "result": "Superior vascularization"}, {"measurement": "overall healing", "setting": "[3]; intradermal delivery vs topical delivery and controls, 19 days after surgery", "result": "improved healing"}, {"measurement": "wound closure", "setting": "[3]; topical delivery, end of the 20-day study", "result": "about 66%"}, {"measurement": "wound closure rate compared to negative control groups", "setting": "[3]; topical delivery, vs no treatment or PBS via MNA and LJI", "result": "No significant difference was observed in the wound closure rate"}, {"measurement": "expression of SMA+ myofibroblasts (IHC)", "setting": "[4]; VEGF delivery", "result": "decreased the expression of SMA+ myofibroblasts"}, {"measurement": "vascularization (vWF expression)", "setting": "[4]; intradermal (MNA) delivery", "result": "a significant enhancement in vascularization"}, {"measurement": "vascularization (vWF expression)", "setting": "[4]; topical delivery", "result": "clearly less effective in inducing vascularization"}, {"measurement": "wound closure / healing rate", "setting": "[5]; MNA delivery, 100 μL of 500 ng/mL on days 5 and 7, day 19", "result": 95, "unit": "%"}, {"measurement": "wound closure compared with other groups", "setting": "[5]; MNA delivery, day 17 and 19", "result": "significantly faster than both topical delivery and negative control groups"}, {"measurement": "average wound size", "setting": "[5]; MNA delivery, day 19", "result": 0.04, "unit": "cm^2"}, {"measurement": "scarring", "setting": "[5]; MNA delivery, end of the experiments", "result": "no evidence of scaring was observed"}, {"measurement": "hair growth in the wound area", "setting": "[5]; topical delivery", "result": "no hair growth was observed"}, {"measurement": "wound closure rate compared to negative control", "setting": "[5]; topical delivery", "result": "No significant difference was observed in the wound closure rate"}, {"measurement": "migration rate", "setting": "HUVECs", "result": "comparable to the positive control group"}, {"measurement": "scratch closure", "setting": "HUVECs; in 4 hours", "result": 100, "unit": "%"}]}]}
